Assay results: ChEMBL document CHEMBL3785085, “Pharmacokinetics of single and multiple doses of phenytoin in man” (Eur J Clin Pharmacol, 1974)

Assays:
[1] = Apparent volume of distribution (area) in healthy human volunteer (5 volunteers) at 5 mg/kg, iv administered as single dose through infusion by gas chromatographic method; format: ADME, organism-based; conditions: in vivo, read-out: Vd(app)
[2] = Half life in healthy human volunteer (5 volunteers) at 5 mg/kg, iv administered as single dose through infusion by gas chromatographic method; format: ADME, organism-based; conditions: in vivo
[3] = Half life in healthy human volunteer (5 volunteers) at 5 mg/kg, po administered as single dose by gas chromatographic method; format: ADME, organism-based; conditions: in vivo
[4] = Half life at post steady state in healthy human volunteer (5 volunteers) at 2 mg/kg, po bid administered for 12 days by gas chromatographic method; format: ADME, organism-based; conditions: in vivo
[5] = Half life during steady state in healthy human volunteer (5 volunteers) at 2 mg/kg, po bid administered for 12 days by gas chromatographic method; format: ADME, organism-based; conditions: in vivo
[6] = Total plasma clearance in healthy human volunteer (5 volunteers) at 5 mg/kg, iv administered as single dose by gas chromatographic method; format: ADME, organism-based
Plasma = experiment: Plasma concentration at steady state in healthy human volunteer (5 volunteers) at 2 mg/kg, po bid administered for 12 days by gas chromatographic method; format: ADME, organism-based; conditions: in vivo, 288 h
[7] = Drug uptake in healthy human volunteer (5 volunteers) at 5 mg/kg, iv administered as single dose through infusion after 0.5 hrs by gas chromatographic method; format: ADME, organism-based; conditions: in vivo, read-out: Drug uptake
[8] = Cmax in healthy human volunteer (5 volunteers) at 5 mg/kg, po administered as single dose by gas chromatographic method; format: ADME, organism-based; design: dose 5 mg/kg, route oral; conditions: in vivo
Homo sapiens = experiment: Anticonvulsant activity in po dose patient assessed as compound level in plasma required to decrease epileptic seizure; format: functional

Vd [1]: 0.52 L/kg | half-life [2]: 14.5 h | half-life [3]: 16.6 h | half-life [4]: 15.9 h | half-life [5]: 21.3 h | clearance [6]: 0.367 mL/min/kg | Cpss (Plasma): 5.3 µg/mL | concentration at 0.5 h [7]: 8400 ng/mL | Cmax [8]: 2600 ng/mL
SMILES: O=C1N=C([O-])NC1(c1ccccc1)c1ccccc1.[Na+] [PHENYTOIN SODIUM]
MEC (Homo sapiens): 10 µg/mL
